# Read-outs that look alike come from different tables or passages of the source.
# What was measured:
# [1] = tested on: Pancreatic carcinoma; test: Inhibition of primary tumor cell cultures (48 hours) vs NK1 receptor immunostaining (Example 1); format: cell-based; conditions: Homo sapiens, 1 micromolar, read-out: Percentage of inhibition of cell cultures
# Procedure: (§1) Cell cultures. To obtain tumor cells from human primary tumors we used the method described in De Bari et al. (De Bari et al. 2001). Briefly, small pieces of the tumors were digested into a hyaluronidase solution (Sigma-Aldrich, USA) at a concentration of 1 mg/ml during 15 minutes at 37°C, and then they were treated with 6 mg/ml of collagenase type IV (Invitrogen) during 2 hours at 37°C. Consecutively, cells were washed, and resuspended in the DMEM culture medium with high concentration of glucose (Dulbecco's Modified Eagle's Medium, Invitrogen) supplemented with 1% of antibiotics-antimycotics (Invitrogen) and with 1% of sodium pyruvate (Invitrogen), and the cells were seeded in culture slides at a concentration of 10.000 cells per square centimeter. When cells reached confluence, the adherent cells were separated using sterile trypsin at 0,5% (Invitrogen) and they were used among passages 3 and 9. For the assays shown next, tumor cells were seeded on slides at a concentration of 25.000 cells per well. A total of 6 wells containing the tumor cells were used as survival control. […] All the cultures were kept during 48 hours and later on recollected for their analysis.
# (§2) Immunohistochemistry techniques. The presence of NK1 receptors was also analyzed using immunohistochemistry techniques. Briefly, a sample of each of the cultures of the cell lines used in the present invention, was centrifuged (5 minutes at 1.500 rpm) and the pellet obtained was dehydrated using increasing concentrations of ethanol and, finally, xylol. Then, said dehydrated samples were embedded in paraffin, creating a block of cells. Such paraffin blocks were cut with a microtome at 5 microns thickness, and were placed on microscope slides adequate to perform immunohistochemistry techniques. Consecutively, they were de-paraffinized by immersing them in xylol, to be finally hydrated using a solution containing decreasing concentrations of ethanol, and finally submerged them into water. […] After this, the samples were left to cool down at room temperature for 10 minutes. The endogenous peroxidase activity was blocked with 3% peroxide of hydrogen for 30 minutes at room temperature. After washing the samples with 0.05 M of Tris buffer, they were incubated with 10% non-immune pork serum at for 30 minutes at room temperature. To analyze the expression of NK1 receptors, the cellular samples were incubated in the presence of anti-NK1 antibodies (S8305, Sigma-Aldrich) diluted 1:1000, overnight at 4°C. Afterwards, the samples were washed in Tris buffer 0.05 M at room temperature. The next step was the addition of Envision System-HRP (Dako) reagents for 30 minutes at room temperature. Then, the samples were washed again in Tris buffer 0.05 M and the immunoreactivity was visualized through light microscopy with a chromogenic solution containing 3,3'-Diaminobenzidine (DAB+; Dako, USA). To differentiate the cell nuclei, they were slightly stained with hematoxylin. As negative control, it was used samples not incubated with the primary antibody anti-NK1, which was replaced by non-immune serum. All the samples were evaluated.
# (§3) To value the immunostaining in each of the cases six cuts were performed to be analyzed by the immunohistochemistry technique. In each of the six cuts, it was counted cells in 20 fields (magnification 400x) using an Olympus microscope (model CX31). In each field it was counted the total number of cells and the number of cells presenting immunostaining, calculating afterwards the percentage of cells which presented immunostaining.
# [2] = tested on: Carcinoma of the uterine cervix; test: as above; format: cell-based; conditions: Homo sapiens, 1 micromolar, read-out: Percentage of inhibition of cell cultures
# Procedure: as §1, §2, §3
# [3] = tested on: Lung carcinoma (non small cell type); test: as above; format: cell-based; conditions: Homo sapiens, 1 micromolar, read-out: Percentage of inhibition of cell cultures
# Procedure: as §1, §2, §3
# [4] = tested on: Urinary bladder carcinoma; test: as above; format: cell-based; conditions: Homo sapiens, 1 micromolar, read-out: Percentage of inhibition of cell cultures
# Procedure: as §1, §2, §3
# [5] = tested on: Glioma; test: as above; format: cell-based; conditions: Homo sapiens, 1 micromolar, read-out: Percentage of inhibition of cell cultures
# Procedure: as §1, §2, §3
# [6] = tested on: Malignant Fibrous Histiocytoma; test: as above; format: cell-based; conditions: Homo sapiens, 1 micromolar, read-out: Percentage of inhibition of cell cultures
# Procedure: as §1, §2, §3
# [7] = tested on: Ewing Sarcoma; test: as above; format: cell-based; conditions: Homo sapiens, 1 micromolar, read-out: Percentage of inhibition of cell cultures
# Procedure: as §1, §2, §3
# [8] = tested on: Burkitt Lymphoma; test: as above; format: cell-based; conditions: Homo sapiens, 1 micromolar, read-out: Percentage of inhibition of cell cultures
# Procedure: as §1, §2, §3
# [9] = tested on: Myeloma; test: as above; format: cell-based; conditions: Homo sapiens, 1 micromolar, read-out: Percentage of inhibition of cell cultures
# Procedure: as §1, §2, §3
# [10] = tested on: Colon carcinoma (Adenocarcinoma); test: Inhibition of primary tumor cell cultures vs Kras mutation (Example 2); format: cell-based, human; conditions: Colon carcinoma (Adenocarcinoma), 100 micromolar
# Procedure: as §1
# (§4) In each case the presence or not of mutations in K-ras gene was determined.
# (§5) To determine the existence of mutations in the K-ras gene DNA from cancer tumor cells was extracted from samples obtained from the different cancer tumor cells, using DNA extraction kits from Takara (Madison, WI, US) or Ambion (Huntingdon, Cambridgeshire, United Kingdom), following the manufacturer's instructions, and as it has been previously published (Di Fiore F, et al. 2007). Consecutively it was analyzed by sequencing the exon 2 of the KRAS gene, , by means of PCR amplification from previously extracted cancer tumor DNA, using the following sense primer (SEQ ID NO. 15): 5'-[sequence]-3' and anti-sense primer (SEQ ID NO. 16): 5'-[sequence]-3'. After the purification using the Qiagen extraction kit, the PCR products were sequenced using the Big Dye Terminator Kit V3.1 (Applied Biosystems, Foster City, CA, U.S.) and an ABI Prism 377 or 3100 DNA sequencer (Applied Biosystems). The presence of a heterozygous mutation in the KRAS gene in cancer tumor cells of the cultures was defined as the appearance of a mutant peak of a height of at least a third of the wild type. All the sequence analysis were executed at least twice in two independent PCR.
# (§6) The antibody against NK1 receptor (Table 16) was used at 1/50 concentration. The percentages of inhibition are expressed in percentage of variation in relation to control ± standard deviation.
# [11] = tested on: Pancreatic carcinoma (Adenocarcinoma); test: as above; format: cell-based, human; conditions: Pancreatic carcinoma (Adenocarcinoma), 100 micromolar
# Procedure: (§7) Cell cultures. […] Briefly, small pieces of the tumors were digested into a hyaluronidase solution (Sigma-Aldrich, USA) at a concentration of 1 mg/ml during 15 minutes at 37°C, and then they were treated with 6 mg/ml of collagenase type IV (Invitrogen) during 2 hours at 37°C. Consecutively, cells were washed, and resuspended in the DMEM culture medium with high concentration of glucose (Dulbecco's Modified Eagle's Medium, Invitrogen) supplemented with 1% of antibiotics-antimycotics (Invitrogen) and with 1% of sodium pyruvate (Invitrogen), and the cells were seeded in culture slides at a concentration of 10.000 cells per square centimeter. When cells reached confluence, the adherent cells were separated using sterile trypsin at 0,5% (Invitrogen) and they were used among passages 3 and 9. For the assays shown next, tumor cells were seeded on slides at a concentration of 25.000 cells per well. A total of 6 wells containing the tumor cells were used as survival control. […] All the cultures were kept during 48 hours and later on recollected for their analysis.
# as §4, §5, §6
# [12] = tested on: Renal cell carcinoma (clear cell renal cell carcinoma); test: as above; format: cell-based, human; conditions: Renal cell carcinoma (clear cell renal cell carcinoma), 100 micromolar
# Procedure: as §1, §4, §5, §6
# [13] = tested on: Endometrium carcinoma; test: as above; format: cell-based, human; conditions: Endometrium carcinoma, 100 micromolar
# Procedure: as §7, §4, §5, §6
# [14] = tested on: Thyroid carcinoma (follicular carcinoma); test: as above; format: cell-based, human; conditions: Thyroid carcinoma (follicular carcinoma), 100 micromolar
# Procedure: To obtain tumor cells from human primary tumors we used the method described in De Bari et al. (De Bari et al. 2001). Briefly, small pieces of the tumors were digested into a hyaluronidase solution (Sigma-Aldrich, USA) at a concentration of 1 mg/ml during 15 minutes at 37°C, and then they were treated with 6 mg/ml of collagenase type IV (Invitrogen) during 2 hours at 37°C. Consecutively, cells were washed, and resuspended in the DMEM culture medium with high concentration of glucose (Dulbecco's Modified Eagle's Medium, Invitrogen) supplemented with 1% of antibiotics-antimycotics (Invitrogen) and with 1% of sodium pyruvate (Invitrogen), and the cells were seeded in culture slides at a concentration of 10.000 cells per square centimeter. When cells reached confluence, the adherent cells were separated using sterile trypsin at 0,5% (Invitrogen) and they were used among passages 3 and 9. For the assays shown next, tumor cells were seeded on slides at a concentration of 25.000 cells per well. A total of 6 wells containing the tumor cells were used as survival control. […] All the cultures were kept during 48 hours and later on recollected for their analysis.
# as §4, §5, §6
# [15] = tested on: Prostate carcinoma; test: as above; format: cell-based, human; conditions: Prostate carcinoma, 100 micromolar
# Procedure: as §1, §4, §5
# (§8) The percentages of inhibition are expressed in percentage of variation in relation to control ± standard deviation.
# [16] = tested on: Undifferentiated Pleomorphic Sarcoma (malignant fibrous histiocytoma grade 3); test: as above; format: cell-based, human; conditions: Undifferentiated Pleomorphic Sarcoma (malignant fibrous histiocytoma grade 3), 100 micromolar
# Procedure: as §1, §4, §5, §8
# [17] = NK1 receptor immunostaining Group 1 (less than 20% of the cells)
# [18] = NK1 receptor immunostaining Group 2 (20-80% of the cells)
# [19] = NK1 receptor immunostaining Group 3 (more than 80% of the cells)
# [20] = NK1 receptor immunostaining Intensity grade 1
# [21] = NK1 receptor immunostaining Intensity grade 2
# [22] = NK1 receptor immunostaining Intensity grade 3
# [23] = Cases with Kras non-mutated (wild type)
structure (smiles),measurement,setting,value
Cc1cc(F)ccc1[C@H]1CNCCN1C(=O)N(C)[C@H](C)c1cc(C(F)(F)F)cc(C(F)(F)F)c1 [Vestipitant],inhibition at 1 µM,[1]; [17],11 ± 3%
same,inhibition at 1 µM,[1]; [18],45 ± 2%
same,inhibition at 1 µM,[1]; [19],91 ± 3%
same,inhibition at 1 µM,[1]; [20],21 ± 4%
same,inhibition at 1 µM,[1]; [21],47 ± 5%
same,inhibition at 1 µM,[1]; [22],91 ± 5%
same,inhibition at 1 µM,[2]; [17],17 ± 4%
same,inhibition at 1 µM,[2]; [18],46 ± 3%
same,inhibition at 1 µM,[2]; [19],94 ± 4%
same,inhibition at 1 µM,[2]; [20],19 ± 3%
same,inhibition at 1 µM,[2]; [21],48 ± 3%
same,inhibition at 1 µM,[2]; [22],94 ± 3%
same,inhibition at 1 µM,[3]; [17],15 ± 2%
same,inhibition at 1 µM,[3]; [18],45 ± 2%
same,inhibition at 1 µM,[3]; [19],93 ± 4%
same,inhibition at 1 µM,[3]; [20],17 ± 2%
same,inhibition at 1 µM,[3]; [21],49 ± 5%
same,inhibition at 1 µM,[3]; [22],93 ± 5%
same,inhibition at 1 µM,[4]; [17],15 ± 3%
same,inhibition at 1 µM,[4]; [18],47 ± 4%
same,inhibition at 1 µM,[4]; [19],92 ± 5%
same,inhibition at 1 µM,[4]; [20],17 ± 3%
same,inhibition at 1 µM,[4]; [21],46 ± 3%
same,inhibition at 1 µM,[4]; [22],92 ± 3%
same,inhibition at 1 µM,[5]; [17],15 ± 4%
same,inhibition at 1 µM,[5]; [18],45 ± 4%
same,inhibition at 1 µM,[5]; [19],92 ± 4%
same,inhibition at 1 µM,[5]; [20],19 ± 3%
same,inhibition at 1 µM,[5]; [21],48 ± 5%
same,inhibition at 1 µM,[5]; [22],92 ± 3%
same,inhibition at 1 µM,[6]; [17],15 ± 4%
same,inhibition at 1 µM,[6]; [18],46 ± 4%
same,inhibition at 1 µM,[6]; [19],91 ± 5%
same,inhibition at 1 µM,[6]; [20],17 ± 3%
same,inhibition at 1 µM,[6]; [21],48 ± 4%
same,inhibition at 1 µM,[6]; [22],91 ± 5%
same,inhibition at 1 µM,[7]; [17],16 ± 3%
same,inhibition at 1 µM,[7]; [18],46 ± 4%
same,inhibition at 1 µM,[7]; [19],90 ± 6%
same,inhibition at 1 µM,[7]; [20],16 ± 4%
same,inhibition at 1 µM,[7]; [21],47 ± 3%
same,inhibition at 1 µM,[7]; [22],90 ± 6%
same,inhibition at 1 µM,[8]; [17],12 ± 3%
same,inhibition at 1 µM,[8]; [18],45 ± 3%
same,inhibition at 1 µM,[8]; [19],92 ± 4%
same,inhibition at 1 µM,[8]; [20],15 ± 3%
same,inhibition at 1 µM,[8]; [21],47 ± 5%
same,inhibition at 1 µM,[8]; [22],92 ± 6%
same,inhibition at 1 µM,[9]; [17],15 ± 2%
same,inhibition at 1 µM,[9]; [18],45 ± 4%
same,inhibition at 1 µM,[9]; [19],93 ± 6%
same,inhibition at 1 µM,[9]; [20],17 ± 2%
same,inhibition at 1 µM,[9]; [21],47 ± 4%
same,inhibition at 1 µM,[9]; [22],93 ± 5%
same,Percentage of inhibition of cell cultures,[10]; Cases with Kras mutated,33±5 percentage
same,Percentage of inhibition of cell cultures,[10]; [23],96±5 percentage
same,Percentage of inhibition of cell cultures,[11]; Cases with Kras mutated,24±4 percentage
same,Percentage of inhibition of cell cultures,[11]; [23],97±4 percentage
same,Percentage of inhibition of cell cultures,[12]; Cases with Kras mutated,25±5 percentage
same,Percentage of inhibition of cell cultures,[12]; [23],95±6 percentage
same,Percentage of inhibition of cell cultures,[13]; Cases with Kras mutated,24±6 percentage
same,Percentage of inhibition of cell cultures,[13]; [23],95±4 percentage
same,Percentage of inhibition of cell cultures,[14]; Cases with Kras mutated,25±3 percentage
same,Percentage of inhibition of cell cultures,[14]; [23],97±4 percentage
same,Percentage of inhibition of cell cultures,[15]; Cases with Kras mutated,24±4 percentage
same,Percentage of inhibition of cell cultures,[15]; [23],96±4 percentage
same,Percentage of inhibition of cell cultures,[16]; Cases with Kras mutated,26±4 percentage
same,Percentage of inhibition of cell cultures,[16]; [23],95±6 percentage

# — EP2966448B1, “METHOD FOR THE PREDICTION OR PROGNOSIS OF THE RESPONSE OF A HUMAN SUBJECT SUFFERING FROM CANCER TO TREATMENT WITH AN ANTAGONIST OF THE NK1 RECEPTOR” (priority 2013, dated 2014)
